For 20 compounds, inhibition of growth and inhibition in vivo results are on record in ChEMBL document CHEMBL3045323, “Synthesis, anti-inflammatory and anticancer activity evaluation of some mono- and bis-Schiffs bases” (2012).

Starred links: 1 amine or outer side, 2 acyl side, 3 side chain; linkers in the order of their positions; H or OH if unused. Positions of bridges follow the written chain, without caps; N, C: chain ends. Non-standard residues stand in square brackets, D forms with d. Residues, ends and D or L forms follow the SMILES beside them. Chains are numbered I, II in the order given. Actinocin(1to9) = Cc1c2oc3c(C)ccc(C(=O)[*:2])c3nc-2c(C(=O)[*:1])c(N)c1=O; NMeV = CN[C@H](C(=O)O)C(C)C; Sar = CNCC(=O)O

A word on the inhibition in vivo: it is the drop in the measured response relative to a control, in per cent.

What all share (assay type): functional
One experiment deals with HepG2. Put plainly: Cytotoxicity against Homo sapiens (human) HepG2 cells assessed as growth inhibition at 1 x 10^-5 M after 48 hr by SRB assay. To be noted: HepG2, 48 h, read-out: GI. In general terms: The SRB assay estimates cell density from bound dye.
Another experiment relates to Rattus norvegicus. Description: Anti-inflammatory activity inRattus norvegicus albino (rat) assessed as inhibition of carrageenan-induced paw edema at 50 mg/kg, po administered for 30 min followed by carrageenan challenge measured after 1 to 3 hr relative to control.
For the next experiment, the system named is NCI-H522. Put plainly: Cytotoxicity against Homo sapiens (human) NCI-H522 cells assessed as growth inhibition at 1 x 10^-5 M after 48 hr by SRB assay. To be noted: NCI-H522, 48 h, read-out: GI.
For a further experiment, the system named is T47D. Put plainly: Cytotoxicity against Homo sapiens (human) T47D cells assessed as growth inhibition at 1 x 10^-5 M after 48 hr by SRB assay. To be noted: read-out: GI.
The test system of a further experiment is PA-1. Put plainly: Cytotoxicity against Homo sapiens (human) PA1 cells assessed as growth inhibition at 1 x 10^-5 M after 48 hr by SRB assay. The conditions noted are these: PA-1, 48 h, read-out: GI.
The next experiment concerns HCT-15. Description: Cytotoxicity against Homo sapiens (human) HCT15 cells assessed as growth inhibition at 1 x 10^-5 M after 48 hr by SRB assay. To be noted: HCT-15, 48 h, read-out: GI.

Regarding `COc1cc(/C=N/CC2CCCO2)ccc1O` (stereo unspecified), the inhibition of growth at 10 µM stood at 1% with HepG2; 17% in the experiment with NCI-H522; 25% in the experiment with T47D; 13% in the experiment on PA-1; 24% in the experiment with HCT-15. Moreover, the inhibition in vivo at 50 mg/kg with Rattus norvegicus was determined as 14%.

As to `COc1cc(/C=N/CCCn2ccnc2)ccc1O`, the inhibition of growth at 10 µM is 11% in the experiment on HepG2; 22% with NCI-H522; 15% in the experiment with T47D; 16% in the experiment with PA-1; 1% in the experiment with HCT-15. Moreover, the inhibition in vivo at 50 mg/kg in the experiment with Rattus norvegicus amounted to 0%.

On to `COc1cc(/C=N/CCN2CCNCC2)ccc1O`, for which the inhibition of growth at 10 µM with HepG2 was 30%; with NCI-H522, 25%; in the experiment on T47D it was 25%; in the experiment with PA-1, 39%; with HCT-15, 4%. Also, in the experiment on Rattus norvegicus, the inhibition in vivo at 50 mg/kg is 18%.

As for `COc1ccc(OC)c(/C=N/CC2CCCO2)c1` (stereo unspecified), the inhibition of growth at 10 µM in the experiment with HepG2 worked out at 25%; with NCI-H522, 15%; in the experiment with T47D, 33%; in the experiment on PA-1, 38%; with HCT-15 it was 0%. Besides, the inhibition in vivo at 50 mg/kg in the experiment with Rattus norvegicus came out at 16%.

With `COc1ccc(OC)c(/C=N/CCCn2ccnc2)c1`, the inhibition of growth at 10 µM with HepG2 is 24%; in the experiment with NCI-H522, 24%; in the experiment on T47D, 29%; in the experiment with PA-1, 25%; with HCT-15, 3%. Also, in the experiment on Rattus norvegicus, the inhibition in vivo at 50 mg/kg worked out at 0%.

For `COc1ccc(OC)c(/C=N/CCN2CCNCC2)c1`, the inhibition of growth at 10 µM with HepG2 turned out to be 22%; in the experiment on NCI-H522, 49%; in the experiment on T47D, 28%; in the experiment on PA-1, 16%; with HCT-15, 4%. Besides, the inhibition in vivo at 50 mg/kg with Rattus norvegicus worked out at 21%.

Consider `C(=N\CC1CCCO1)/c1ccco1` (stereo unspecified), for which the inhibition of growth at 10 µM worked out at 20% in the experiment with HepG2; 15% in the experiment with NCI-H522; 12% with T47D; 16% in the experiment with PA-1; 4% with HCT-15. Moreover, in the experiment on Rattus norvegicus, the inhibition in vivo at 50 mg/kg came out at 26%.

Turning to `C(=N\CCCn1ccnc1)/c1ccco1`, the inhibition of growth at 10 µM in the experiment on HepG2 was found to be 1%; with NCI-H522, 29%; in the experiment with T47D, 16%; in the experiment on PA-1, 13%; with HCT-15, 1%. For the same compound, the inhibition in vivo at 50 mg/kg in the experiment with Rattus norvegicus was 28%.

With `C(=N\CCN1CCNCC1)/c1ccco1`, the inhibition of growth at 10 µM came out at 18% in the experiment on HepG2; 19% in the experiment with NCI-H522; 21% with T47D; 35% in the experiment on PA-1; 5% in the experiment on HCT-15. Also, the inhibition in vivo at 50 mg/kg in the experiment with Rattus norvegicus worked out at 22%.

For `COc1cc(/C=N/c2n[nH]c(/N=C/c3ccc(O)c(OC)c3)n2)ccc1O`, the inhibition of growth at 10 µM in the experiment on HepG2 amounted to 14%; in the experiment with NCI-H522, 9%; with T47D it was 38%; in the experiment on PA-1, 40%; with HCT-15 it was 4%. In the experiment with Rattus norvegicus, the inhibition in vivo at 50 mg/kg was 26%.

For `COc1cc(/C=N/CCCN2CCN(CCC/N=C/c3ccc(O)c(OC)c3)CC2)ccc1O`, the inhibition of growth at 10 µM with HepG2 is 3%; in the experiment with NCI-H522, 1%; with T47D, 18%; in the experiment with PA-1, 51%; in the experiment with HCT-15, 5%. For the same compound, the inhibition in vivo at 50 mg/kg in the experiment with Rattus norvegicus turned out to be 25%.

In the case of `COc1ccc(OC)c(/C=N/c2n[nH]c(/N=C/c3cc(OC)ccc3OC)n2)c1`, the inhibition of growth at 10 µM with HepG2 was found to be 10%; in the experiment on NCI-H522 it was 15%; in the experiment on T47D it was 41%; in the experiment on PA-1 it was 53%; in the experiment on HCT-15, 5%. Also, the inhibition in vivo at 50 mg/kg with Rattus norvegicus was found to be 22%.

Consider `COc1ccc(OC)c(/C=N/CCCN2CCN(CCC/N=C/c3cc(OC)ccc3OC)CC2)c1`, for which the inhibition of growth at 10 µM was 8% in the experiment with HepG2; 13% with NCI-H522; 24% in the experiment on T47D; 62% in the experiment with PA-1; 7% in the experiment with HCT-15. For the same compound, the inhibition in vivo at 50 mg/kg in the experiment on Rattus norvegicus worked out at 20%.

`C(=N\c1n[nH]c(/N=C/c2ccco2)n1)/c1ccco1`: the inhibition of growth at 10 µM stood at 25% in the experiment on HepG2; 26% in the experiment with NCI-H522; 30% in the experiment with T47D; 48% in the experiment with PA-1; 3% with HCT-15. Also, the inhibition in vivo at 50 mg/kg with Rattus norvegicus was 11%.

On to `C(=N\CCCN1CCN(CCC/N=C/c2ccco2)CC1)/c1ccco1`, for which the inhibition of growth at 10 µM in the experiment with HepG2 was 10%; in the experiment on NCI-H522, 5%; in the experiment with T47D, 9%; in the experiment with PA-1, 43%; with HCT-15, 6%. In the experiment on Rattus norvegicus, the inhibition in vivo at 50 mg/kg amounted to 30%.

Consider `C[C@@H]1C[C@@H]([C@H](O)CC2CC(=O)NC(=O)C2)C(=O)[C@@H](C)C1` [CYCLOHEXIMIDE], for which the inhibition of growth at 10 µM with HepG2 came out at 14%; in the experiment with NCI-H522 it was 20%; with T47D, 30%; with PA-1, 82%; in the experiment on HCT-15 it was 5%.

Take `O=P1(N(CCCl)CCCl)NCCCO1` (stereo unspecified) [CYCLOPHOSPHAMIDE ANHYDROUS]: the inhibition of growth at 10 µM with HepG2 came to 24%; in the experiment on NCI-H522 it was 7%; in the experiment with T47D, 36%; with PA-1, 21%; in the experiment on HCT-15, 7%.

Turning to `Cc1c2oc3c(C)ccc(C(=O)N[C@@H]4C(=O)N[C@H](C(C)C)C(=O)N5CCC[C@H]5C(=O)N(C)CC(=O)N(C)[C@@H](C(C)C)C(=O)O[C@@H]4C)c3nc-2c(C(=O)N[C@@H]2C(=O)N[C@H](C(C)C)C(=O)N3CCC[C@H]3C(=O)N(C)CC(=O)N(C)[C@@H](C(C)C)C(=O)O[C@@H]2C)c(N)c1=O` [DACTINOMYCIN] (I: T[dV]P[Sar][NMeV] / II: T[dV]P[Sar][NMeV]; ester I:1-I:C, II:1-II:C; linker I:N-II:N via Actinocin(1to9)), the inhibition of growth at 10 µM in the experiment with HepG2 was 42%; in the experiment with NCI-H522, 59%; with T47D, 21%; in the experiment with PA-1, 93%; with HCT-15, 49%.

Turning to `O=c1[nH]cc(F)c(=O)[nH]1` [FLUOROURACIL], the inhibition of growth at 10 µM in the experiment with HepG2 came to 33%; in the experiment with NCI-H522, 51%; in the experiment with T47D, 22%; in the experiment with PA-1, 27%; with HCT-15, 21%.

For the compound `CC(C)Cc1ccc(C(C)C(=O)O)cc1` (stereo unspecified) [IBUPROFEN], the inhibition in vivo at 50 mg/kg with Rattus norvegicus is 39%.
